Test results: PubChem BioAssay (NCI)
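Results reflect a 48-hour exposure of cells in 96-well plates to compound at five concentrations. TGI: concentration producing complete growth inhibition.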

Columns and labels:
Test in all cases: NCI-60 cell line screen, 48 h
[1] = test system: COLO 205 colon
[2] = test system: RXF 393 renal
[3] = test system: DLD-1 colon
[4] = test system: SF-539 CNS
[5] = test system: SNB-19 CNS
[6] = test system: HOP-62 NSCLC
[7] = test system: RPMI-8226 leukemia
[8] = test system: LOX IMVI melanoma
[9] = test system: HCT-15 colon
[10] = test system: UO-31 renal
[11] = test system: SK-OV-3 ovarian
[12] = test system: HCT-116 colon
[13] = test system: NCI-H23 lung
[14] = test system: SK-MEL-5 melanoma
[15] = test system: MALME-3M melanoma
[16] = test system: SNB-75 CNS
[17] = test system: OVCAR-3 ovarian
[18] = test system: IGROV1 ovarian
[19] = test system: HL-60(TB) leukemia
[20] = test system: SK-MEL-28 melanoma
[21] = test system: KM12 colon
[22] = test system: A549 NSCLC
[23] = test system: K-562 leukemia
[24] = test system: XF 498 CNS
[25] = test system: CCRF-CEM leukemia
[26] = test system: DMS 273 small cell lung
[27] = test system: EKVX NSCLC
[28] = test system: U251 CNS
[29] = test system: TK-10 renal
[30] = test system: M19-MEL melanoma
[31] = test system: M14 melanoma
[32] = test system: HT29 colon
[33] = test system: 786-0 renal
[34] = test system: OVCAR-8 ovarian
[35] = test system: SW-620 colon
[36] = test system: NCI-H226 lung
[37] = test system: NCI-H522 lung
[38] = test system: MOLT-4 leukemia
[39] = test system: UACC-62 melanoma
[40] = test system: NCI-H460 lung
[41] = test system: ACHN renal
[42] = test system: DMS 114 small cell lung
[43] = test system: SN12C renal
[44] = test system: UACC-257 melanoma
[45] = test system: HOP-18 NSCLC
[46] = test system: SF-295 CNS
[47] = test system: CAKI-1 renal
[48] = test system: SF-268 CNS
[49] = test system: OVCAR-5 ovarian
[50] = test system: LXFL 529 NSCLC
[51] = test system: SR leukemia
[52] = test system: KM20L2 colon
[53] = test system: SK-MEL-2 melanoma
[54] = test system: SNB-78 CNS
[55] = test system: HCC-2998 colon
[56] = test system: OVCAR-4 ovarian
[57] = test system: A498 renal
[58] = test system: HOP-92 NSCLC

Measured: TGI

N/C=N/S(=O)(=O)c1ccc(NC(=O)COC(=O)c2cccc3c(=O)c4ccccc4[nH]c23)cc1
not listed: [47] | [48] | [49] | [50] | [51] | [52] | [53] | [54] | [55] | [56] | [57] | [58]
> 100 µM: all other assays above

N#CCCN(CCC#N)c1ccc(/C=C(/NC(=O)c2cc([N+](=O)[O-])ccc2Cl)C(=O)NN)cc1
not listed: [19] | [24] | [42] | [58]
> 100 µM: all other assays above

C/C(CCn1[nH]c(=O)ccc1=O)=N\NC(=O)C(N)=O
not listed: [7] | [11] | [25] | [38] | [51]
> 100 µM: all other assays above

O=C(Cc1ccccc1[N+](=O)[O-])C(CO)c1ccccc1[N+](=O)[O-] (stereo not given)
70.5 µM: [37]
93.3 µM: [58]
not listed: [51]
> 100 µM: all other assays above
